Results taken from patent US20130116302A1, “PHARMACEUTICAL COMPOSITION FOR THE TREATMENT OF CHLAMYDIAL INFECTION” (Max-Planck-Gesellschaft zur Foerderung der Wissenschaften …, priority 2010, published 2013).
Like-named read-outs stand apart in the source and are kept apart here.

How the values were obtained:
[1] = test system: cellular UTP, CTP, GMP, ATP, ITP; settings: Neil et al., 1979; cited from earlier work
P. falciparum = settings: in vitro; cited from earlier work
Chlamydia = assay: effect of chemical inhibitors of GMPS on Chlamydia infection; type: cell-based
Experimental: The effect of chemical inhibitors of GMPS on Chlamydia infection was tested.

PPAT, GMPS, CAD, CTPS = settings: de novo pathway of purine and pyrimidine synthesis; cited from earlier work
bloodstream T. brucei [2] = settings: bloodstream T. brucei in culture; cited from earlier work
bloodstream T. brucei [3] = settings: mouse model; cited from earlier work
GMPS = GMPS (Escherichia coli, UniProt P04079); settings: Chittur et al., 2001, cited from earlier work
Sequence of GMPS (P04079 whole entry): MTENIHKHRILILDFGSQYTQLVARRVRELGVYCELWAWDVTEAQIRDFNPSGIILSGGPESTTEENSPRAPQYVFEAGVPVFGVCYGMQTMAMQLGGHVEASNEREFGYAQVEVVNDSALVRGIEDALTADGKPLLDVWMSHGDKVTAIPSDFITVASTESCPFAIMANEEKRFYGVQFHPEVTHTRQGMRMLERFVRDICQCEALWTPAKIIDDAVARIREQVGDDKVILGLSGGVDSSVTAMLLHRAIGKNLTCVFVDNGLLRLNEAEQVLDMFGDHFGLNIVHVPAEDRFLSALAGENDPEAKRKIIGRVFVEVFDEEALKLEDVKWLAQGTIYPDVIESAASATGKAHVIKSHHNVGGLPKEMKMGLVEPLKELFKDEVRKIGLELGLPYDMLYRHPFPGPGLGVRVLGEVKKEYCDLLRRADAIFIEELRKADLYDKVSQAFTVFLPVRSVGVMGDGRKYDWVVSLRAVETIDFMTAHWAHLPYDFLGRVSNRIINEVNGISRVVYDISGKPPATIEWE

Leishmania donovani = settings: vector and host form; cited from earlier work

N[C@H](C(=O)O)[C@@H]1CC(Cl)=NO1 [acivicin, L-[αS,5S]-α-amino-3-chloro-4,5-dihydro-5-isoxazoleacetic acid]
cellular nucleotide concentrations [1]: decrease of cellular UTP, CTP, and GMP concentrations, with no alteration in ATP or ITP pools | growth of P. falciparum (P. falciparum): inhibit the growth | Chlamydia replication after addition of the nucleotides GTP and GMP (Chlamydia; cells to which acivicin was added): recover Chlamydia replication | Chlamydia replication (Chlamydia; chemical inhibitor of GMPS added to infected cells): complete block | inhibition of PPAT, GMPS, CAD and CTPS (PPAT, GMPS, CAD, CTPS): inhibits | antitrypanosomal activity (bloodstream T. brucei [2]): antitrypanosomal activity | antitrypanosomal activity (bloodstream T. brucei [3]): antitrypanosomal activity | inhibition of GMPS (γ-glutamine amidotransferase activity) (GMPS): inhibit | inhibition of GMPS (γ-glutamine amidotransferase activity) (GMPS; listed as Acivicin): irreversibly inhibits | killing of Leishmania donovani (Leishmania donovani): kills both the vector and the host form
